The record followed here is PubChem BioAssay AID2060329 (Molecular Pharmacology Branch, DTP, NCI, 2025).

“And” between values parts separate entries of the source, which are not always exact repeats. Identical values can stand only once. Bounds are passed on as bounds.

The IC50 is the concentration at which inhibition is half-maximal. Broadly, the viability, T/C is the result in the treated group divided by that in the control group, in per cent.

For this assay, the system named is MCF7 multi-cell spheroids with HUVEC/MSC, viability. Description: Anticancer human tumor MCF7 cell line growth inhibition [IpAb].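 For all read-outs here: spheroids exposed to agents for seven days before readout.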 Conditions: for viability, T/C: stronger effect = lower value. An outline of the steps:
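Combinations with ipatasertib or abemaciclib were tested on tumour spheroids holding HUVEC (25%) and MSC (15%) alongside 60% malignant cells. Top concentration was at or near clinical Cmax (10 microM if undefined), descending in half-log steps.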

The mark [1] stands for this setting: curve of first compound, second compound 0.1 µM.
Setting [2] is: curve of first compound, second compound 0.316 µM.
[3] abbreviates: curve of first compound, second compound 1 µM.
Where [4] appears, read: second compound 0.1 µM, first compound 0.0316 µM.
Where [5] appears, read: second compound 0.1 µM, first compound 0.1 µM.
[6] abbreviates: second compound 0.1 µM, first compound 0.316 µM.
Setting [7] is: second compound 0.1 µM, first compound 1 µM.
Setting [8] is: second compound 0.1 µM, first compound 3.16 µM.
Where [9] appears, read: second compound 0.1 µM, first compound 10 µM.
[10] abbreviates: second compound 0.316 µM, first compound 0.0316 µM.
[11] abbreviates: second compound 0.316 µM, first compound 0.1 µM.
The mark [12] stands for this setting: second compound 0.316 µM, first compound 0.316 µM.
[13] abbreviates: second compound 0.316 µM, first compound 1 µM.
Setting [14] is: second compound 0.316 µM, first compound 3.16 µM.
The mark [15] stands for this setting: second compound 0.316 µM, first compound 10 µM.
Setting [16] is: second compound 1 µM, first compound 0.0316 µM.
Where [17] appears, read: second compound 1 µM, first compound 0.1 µM.
The mark [18] stands for this setting: second compound 1 µM, first compound 0.316 µM.
The mark [19] stands for this setting: second compound 1 µM, first compound 1 µM.
The mark [20] stands for this setting: second compound 1 µM, first compound 3.16 µM.
The mark [21] stands for this setting: second compound 1 µM, first compound 10 µM.
Setting [22] is: curve of first compound, second compound 0.01 µM.
The mark [23] stands for this setting: curve of first compound, second compound 0.0316 µM.
The mark [24] stands for this setting: second compound 0.01 µM, first compound 0.0316 µM.
The mark [25] stands for this setting: second compound 0.01 µM, first compound 0.1 µM.
The mark [26] stands for this setting: second compound 0.01 µM, first compound 0.316 µM.
Setting [27] is: second compound 0.01 µM, first compound 1 µM.
The mark [28] stands for this setting: second compound 0.01 µM, first compound 3.16 µM.
[29] abbreviates: second compound 0.01 µM, first compound 10 µM.
The mark [30] stands for this setting: second compound 0.0316 µM, first compound 0.0316 µM.
Where [31] appears, read: second compound 0.0316 µM, first compound 0.1 µM.
The mark [32] stands for this setting: second compound 0.0316 µM, first compound 0.316 µM.
Setting [33] is: second compound 0.0316 µM, first compound 1 µM.
Where [34] appears, read: second compound 0.0316 µM, first compound 3.16 µM.
The mark [35] stands for this setting: second compound 0.0316 µM, first compound 10 µM.

With `C=CC(=O)N1CCN(c2nc(=O)n(-c3c(C)ccnc3C(C)C)c3nc(-c4c(O)cccc4F)c(F)cc23)C(C)C1` (stereo not given) + CC(C)NCC(C(=O)N1CCN(c2ncnc3c2C(C)CC3O)CC1)c1ccc(Cl)cc1, the 50% inhibitory concentration (IC50) is, setting by setting: under setting [1], 8.3 µM; under setting [2], 6.94 µM; under setting [3], 2.71 µM; (curve of first compound, second compound 3.16 µM) 1.06 µM; (curve of first compound, second compound 10 µM) under 0.0316 µM. Further, the viability, T/C under setting [4] was 82.4%; the viability, T/C under setting [5] is 99.8%; the viability, T/C under setting [6] is 100%; the viability, T/C under setting [7] is 90.8%; the viability, T/C under setting [8] was 78.3%; the viability, T/C under setting [9] is 44.5%. Besides, the viability, T/C was 79.5% under setting [10]; 87.3% under setting [11]; 77.1% under setting [12]; 73.3% under setting [13]; 68.4% under setting [14]; 41.6% under setting [15]. In addition, the viability, T/C by setting is: under setting [16], 74.5%; under setting [17], 73.3%; under setting [18], 65.4%; under setting [19], 65.8%; under setting [20], 46.6%; under setting [21], 32.8%. For the same compound, the viability, T/C (second compound 3.16 µM, first compound 0.0316 µM) was 58.6%; the viability, T/C (second compound 3.16 µM, first compound 0.1 µM) was 53.4%; the viability, T/C (second compound 3.16 µM, first compound 0.316 µM) is 56.6%; the viability, T/C (second compound 3.16 µM, first compound 1 µM) was 50.2%; the viability, T/C (second compound 3.16 µM, first compound 3.16 µM) was 38.7%; the viability, T/C (second compound 3.16 µM, first compound 10 µM) is 22.6%. The viability, T/C (second compound 10 µM, first compound 0.0316 µM) was 47.7%; the viability, T/C (second compound 10 µM, first compound 0.1 µM) was 41.3%; the viability, T/C (second compound 10 µM, first compound 0.316 µM) was 44%; the viability, T/C (second compound 10 µM, first compound 1 µM) was 36.3%; the viability, T/C (second compound 10 µM, first compound 3.16 µM) was 40.9%; the viability, T/C (second compound 10 µM, first compound 10 µM) was 22.6%.
For `Cn1nccc1Nc1nccc(-c2ccn(C(CO)c3ccc(Cl)c(F)c3)c(=O)c2)n1` (stereo not given), the viability, T/C was 96.3% and 104% (compound 0.0316 µM); 96.2% and 111% (compound 0.1 µM); 116% and 119% (compound 0.316 µM); 129% and 118% (compound 1 µM); 128% and 143% (compound 3.16 µM); 88.5% and 102% (compound 10 µM). Moreover, where the note is “curve of compound”, the IC50 is over 10 µM.
`Cc1nc(NC(=O)N2CCCC2C(N)=O)sc1-c1ccnc(C(C)(C)C(F)(F)F)c1` (stereo not given) + CCN1CCN(Cc2ccc(Nc3ncc(F)c(-c4cc(F)c5nc(C)n(C(C)C)c5c4)n3)nc2)CC1: the IC50 runs as follows: under setting [22], 3.36 µM; under setting [23], 2.43 µM; under setting [1], 2.69 µM; under setting [2], 3.5 µM; under setting [3], 2.73 µM. Besides, the viability, T/C runs as follows: under setting [24], 104%; under setting [25], 93.5%; under setting [26], 94.8%; under setting [27], 72.6%; under setting [28], 52.2%; under setting [29], 23.8%. Moreover, the viability, T/C reads like this: under setting [30], 112%; under setting [31], 108%; under setting [32], 91%; under setting [33], 63.4%; under setting [34], 48.7%; under setting [35], 14.2%. For the same compound, the viability, T/C reads like this: under setting [4], 106%; under setting [5], 96.6%; under setting [6], 76%; under setting [7], 59.4%; under setting [8], 56.5%; under setting [9], 27.3%. For the same compound, the viability, T/C reads like this: under setting [10], 93%; under setting [11], 105%; under setting [12], 80.7%; under setting [13], 61.4%; under setting [14], 58.9%; under setting [15], 34%. For the same compound, the viability, T/C is 92.3% under setting [16]; 80.2% under setting [17]; 65.6% under setting [18]; 69.4% under setting [19]; 48% under setting [20]; 33.1% under setting [21].
For `Cn1cnc2c(F)c(Nc3ccc(Br)cc3Cl)c(C(=O)NOCCO)cc21`, the viability, T/C (compound 0.00949 µM) was 97.5% and 94.6%; the viability, T/C (compound 0.03 µM) is 102% and 98%; the viability, T/C (compound 0.0949 µM) is 105% and 97.7%; the viability, T/C (compound 0.3 µM) was 103% and 116%; the viability, T/C (compound 0.949 µM) is 107% and 102%; the viability, T/C (compound 3 µM) is 111% and 109%. The IC50 (curve of compound) is over 3 µM.
For `CC(C)NCC(C(=O)N1CCN(c2ncnc3c2C(C)CC3O)CC1)c1ccc(Cl)cc1` (stereo not given), the viability, T/C was 86.9% [middle of 13 runs] (compound 0.1 µM), 75.5% [middle of 13 runs] (compound 0.316 µM), 65.3% [middle of 13 runs] (compound 1 µM) and 54.2% [middle of 13 runs] (compound 3.16 µM).
Take `Cn1nccc1Nc1nccc(-c2ccn(C(CO)c3ccc(Cl)c(F)c3)c(=O)c2)n1` (stereo not given) + CCN1CCN(Cc2ccc(Nc3ncc(F)c(-c4cc(F)c5nc(C)n(C(C)C)c5c4)n3)nc2)CC1: the IC50 is over 10 µM under setting [22]; over 10 µM under setting [23]; over 10 µM under setting [1]; over 10 µM under setting [2]; over 10 µM under setting [3]. Further, the viability, T/C under setting [24] is 107%; the viability, T/C under setting [25] is 113%; the viability, T/C under setting [26] is 115%; the viability, T/C under setting [27] was 126%; the viability, T/C under setting [28] was 143%; the viability, T/C under setting [29] was 104%. Moreover, the viability, T/C under setting [30] is 105%; the viability, T/C under setting [31] was 116%; the viability, T/C under setting [32] was 128%; the viability, T/C under setting [33] is 136%; the viability, T/C under setting [34] is 138%; the viability, T/C under setting [35] is 62.1%. In addition, the viability, T/C runs as follows: under setting [4], 116%; under setting [5], 129%; under setting [6], 139%; under setting [7], 136%; under setting [8], 139%; under setting [9], 74.8%. Further, the viability, T/C runs as follows: under setting [10], 119%; under setting [11], 115%; under setting [12], 131%; under setting [13], 143%; under setting [14], 133%; under setting [15], 95%. For the same compound, the viability, T/C is 126% under setting [16]; 125% under setting [17]; 123% under setting [18]; 148% under setting [19]; 145% under setting [20]; 113% under setting [21].
Turning to `COc1c(OCCCN2CCOCC2)ccc2c3n(c(=NC(=O)c4cnc(N)nc4)nc12)CCN3`, the viability, T/C is 89.3% and 87.5% (compound 0.00316 µM); 80.2% and 84.9% (compound 0.01 µM); 64.7% and 59.9% (compound 0.0316 µM); 32% and 36.9% (compound 0.1 µM); 14% and 10.5% (compound 0.316 µM); 14.2% and 13.4% (compound 1 µM). In addition, the IC50 (curve of compound) amounted to 0.0519 µM.
